In patent publication US7378409B2, “Substituted cycloalkylamine derivatives as modulators of chemokine receptor activity” (Bristol-Myers Squibb Company, priority 2003, dated 2008):

Assay: Long-term storage stability of the isolated salt
Format: physicochemical
Settings: TFA salt of the title compound; converted to free base for that reason
Procedure: Example 3a, Step 5: A solution of (1R,3R,4S)-3-butyl-N1-isopropyl-N1-methylcyclohexane-1,4-diamine (58 mg, 0.25 mmol) in methylene chloride (5 mL) was charged successively with HATU (113 mg, 0.29 mmol), 2-(5-(trifluoromethyl)-1H-indazol-3-ylamino)acetic acid (58 mg, 0.22 mmol), and N,N-diisopropylethylamine (0.22 mL, 1.24 mmol). The reaction was stirred for 16 h at RT, concentrated in vacuo, and diluted with EtOAc. The organic phase was washed successively with sat. NaHCO3, water, 1N HCl, water, and brine before being dried (sodium sulfate), filtered, and concentrated in vacuo. […] Accordingly, this material was dissolved in EtOAc and the organic phase was washed with sat. NaHCO3 and brine before being dried (sodium sulfate), filtered, and concentrated in vacuo to afford the free base of the title compound, N-((1S,2R,4R)-2-butyl-4-(isopropyl(methyl)amino)cyclohexyl)-2-(5-(trifluoromethyl)-1H-indazol-3-ylamino)acetamide. MS found: (M+H)^+=468.4.

stability to long-term storage: unstable to long-term storage
SMILES: CCCC[C@@H]1C[C@H](N(C)C(C)C)CC[C@@H]1NC(=O)CNc1n[nH]c2ccc(C(F)(F)F)cc12 [Example 3a, N-((1S,2R,4R)-2-butyl-4-(isopropyl(methyl)amino)cyclohexyl)-2-(5-(trifluoromethyl)-1H-indazol-3-ylamino)acetamide]
